In publication PMC11066871 (Journal of the American Chemical Society, 2024):

What was measured:
anti-pS2 antibody 2G1 [1] = test: Competitive ELISA with immobilized phosphopeptide 35; assay type: binding, rabbit; conditions: for LogIC50, best-fit value (Table S4, 2G1): log10 of competitor concentration, One site-Fit logIC50; for competition against immobilized peptide 35 for antibody binding (in words): peptide in solution, increasing concentrations
Description: (§1) The 100% binding value refers to binding of antibody to immobilized 35 in the absence of competitor.
(§2) A stock solution in immobilization buffer (NaH2PO4 200 mM, pH 7.4 ) was prepared for every test peptide. The […]
(§3) withdrawn and diluted step w ise with immobilization buffer from high µM range to 300 nM. Stock solution s an d sample s w ere stored at - 8 0°C.
(§4) - Thawing o f all the sampl es at room temperature for 30 min utes. The samples were quickly centrifuged and carefully mi xed before being used.
(§5) - Plating of the samples (100 µl) into a black non-binding 96-well plate that was previously conditioned overnight with wash buffer (NaH2PO4 200 mM, BS A 1% w/ v, Tween -20 0. 05%, pH 7. 4) and washed 3 times with the immobilization buffer.
(§6) - Sample s wer e transferred wit h a multi-channel pip ette to the clear Ni2+-coated 96 -well p late. Thi s plate-to-plate transfer provided full control of the timing of the Ni2+ -His6 interaction.
(§7) - Incubation for one hour at 25°C.
(§8) - Preparation of the primary antibody dilutions from the stock and then subsequent serial dilutions using […]
(§9) - Wash ing the plate 5 tim es for one minute with wa sh buffer (200 µl) .
(§10) - Plating of the primary antibody (100 µl) and incubation of the primary antibody for 1 hour at 37°C.
(§11) - Preparation of the dilution and plating (100 µl) of the secon dary antibody.
(§12) - Incubation for 30 minutes at 37°C.
(§13) - Wash ing the plate 5 times for one minute with wa sh buffer (200 µl) .
(§14) - Plating of the freshly prepared TMB-H 2O2 solution (1:1, 10 0 µl) .
(§15) - TMB solution incubation for 20 minutes at 25 °C.
(§16) - Plating of the Stop solution (2 M H2SO4, 1 00 µL).
(§17) - Incubation at 25°C for 1 minute.
(§18) - Plate reading at 450 nm, nor mal aperture, 1 second as m e asurem ent time . […]
(§19) for the primary and secondary antibodies. The average value of the optical density of the blanks was subtracted from the OD of the analyte s in the s ame plate befor e data analysi s. All the e xperi ments have be en perfor med a s biologi cal triplicate unless otherwise stated. […]
(§20) in each triplicate to provide randomization on the plate. […]
(§21) After the incubation time and the wash, the seri es of dilutions ( 300, 100, 50, 25, 1 2.5, 6.2 5, 2. 1 and 0.7 nM) of the co mpetit ors wa s plated, all […]
(§22) the samples in half the volu me (50 µL) and double the concentration. Incubation for 5 minutes at 25°C.
(§23) Plating of the primary antibody in half the volume (50 µL) and double the concentration. The final volume in each well was 100 µL, and the final concentration of the primary antibody was 1:1000. On the same plate, a highly concentrated sample of each competitor (1.2 µM) was also plated to evaluate p ossible unspecific

anti-pS2 antibody E1Z3G [2] = test: as above; assay type: binding, rabbit; conditions: for LogIC50, best-fit value (Table S4, E1Z3G): log10 of competitor concentration, One site-Fit logIC50; for competition against immobilized peptide 35 for antibody binding (in words): peptide in solution, increasing concentrations
Description: as §1, §2, §3, §4, §5, §6, §7, §8, §9, §10, §11, §12, §13, §14, §15, §16, §17, §18, §19, §20, §21, §22, §23

[3] = tested on: anti-pS2 antibody EPR18855; test: as above; assay type: binding, rabbit; conditions: for LogIC50, best-fit value (Table S4, EPR18855): log10 of competitor concentration, One site-Fit logIC50; for competition against immobilized peptide 35 for antibody binding (in words): peptide in solution, increasing concentrations
Description: as §1, §2, §3, §4, §5, §6, §7, §8, §9, §10, §11, §12, §13, §14, §15, §16, §17, §18, §19, §20, §21, §22, §23

anti-pS2 antibody 2G1 [4] = test: Indirect ELISA, relative binding at single antibody dilution; parameters: species or system rabbit; conditions: immobilized peptide
Description: (§24) To allow rapid screening, the His6-tagged CTD peptides were immobilized onto Ni^2+-coated 96-well microtiter plates. The immobilized peptides were incubated with increasing concentrations of the anti-pS2 antibody E1Z3G. […] Next, positional scanning was performed with anti-pS2 antibodies EPR18855 (Abcam) and 2G1 (Thermo Fisher/Invitrogen). Here, and in subsequent experiments, we refrained from obtaining titration curves and instead determined the fold change of antibody binding relative to that of a reference binder (Figure 4B).
(§25) Figure 4 (A) Titration of the E1Z3G primary antibody to immobilized hexaheptade peptides. […] (C) Probing chelate and cluster effects upon binding of EPR18855, 2G1, and E1Z3G mAbs to hexaheptad peptides containing two or six pSer2 residues. […] 100 μL of TMB–H2O2 solution (1:1), 20 min, 25 °C, ii. 100 μL of 2 M H2SO4, 1 min, 25 °C. Washes and dilution of the antibodies were performed with NaH2PO4, 200 mM BSA (1% w/v), and 0.05% Tween-20 at pH 7.4. Assays were performed in triplicate with randomized positions of probes or antibodies.
as §2, §3, §4, §5, §6, §7, §8, §9, §10, §11, §12, §13, §14, §15, §16, §17, §18, §19, §20
(§26) - Relative affinity mea suremen ts: 3 serial dilutions o f the pri mary mAbs wer e used in the experi ment fro m […]
(§27) nM). The relati ve binding valu es wer e g enerated by dividing the OD value for each probe by the OD value of the referenc e peptide tested in the sa me plat e, with th e sa me conditions. […]

[5] = tested on: anti-pS2 antibody EPR18855; test: as above; parameters: species or system rabbit; conditions: immobilized peptide
Description: as §24, §25, §2, §3, §4, §5, §6, §7, §8, §9, §10, §11, §12, §13, §14, §15, §16, §17, §18, §19, §20, §26, §27

anti-pS2 antibody E1Z3G [6] = test: as above; parameters: species or system rabbit; conditions: immobilized peptide
Description: as §24, §25, §2, §3, §4, §5, §6, §7, §8, §9, §10, §11, §12, §13, §14, §15, §16, §17, §18, §19, §20, §26, §27

| Substance | LogIC50, best-fit value (Table S4, 2G1) (anti-pS2 antibody 2G1 [1]) | competition against immobilized peptide 35 for antibody binding (in words) (anti-pS2 antibody 2G1 [1]) | LogIC50, best-fit value (Table S4, E1Z3G) (anti-pS2 antibody E1Z3G [2]) | competition against immobilized peptide 35 for antibody binding (in words) (anti-pS2 antibody E1Z3G [2]) | LogIC50, best-fit value (Table S4, EPR18855) [3] | competition against immobilized peptide 35 for antibody binding (in words) [3] | recognition by 2G1 (in words) (anti-pS2 antibody 2G1 [4]) | recognition by EPR18855 (in words) [5] | binding enhancement of E1Z3G relative to 35 (anti-pS2 antibody E1Z3G [6]) [fold] |
| --- | --- | --- | --- | --- | --- | --- | --- | --- | --- |
| Ac- YSPTSPS YSPTSPS YSPTSPS YSPTSPS YSPTSPS YSPTSPS -NH2 [compound 3, Ac-hexaheptad CTD peptide amide phosphorylated at each Thr4] | ~ 8.143 | not able to compete | -5.866 | not able to compete | 8.303 | not able to compete | – | – | – |
| Ac- YSPTSPS YSPTSPS YSPTSPS YSPTSPS YSPTSPS YSPTSPS -NH2 [compound 4, Ac-hexaheptad CTD peptide amide phosphorylated at each Ser5] | 7.562 | not able to compete | ~ -3.629 | not able to compete | 1.287 | not able to compete | – | – | – |
| H6-NH-(CH2)2-PEG6-CO-YSPTSPS-YpSPTSPS-(YSPTSPS)4-YAPTSPS-(YSPTSPS)2-YpSPTSPS-(YSPTSPS)2 [compound 28, dodecaheptad CTD peptide, pSer2 in heptads 2 and 10] | – | – | – | – | – | – | remained at the level of the monovalent phosphopeptide | remained at the level of the monovalent phosphopeptide | – |
| H6-NH-(CH2)2-PEG6-CO-YSPTSPS-YpSPTSPS-(YSPTSPS)4-YAPTSPS-(YSPTSPS)-YpSPTSPS-(YSPTSPS)3 [compound 27, dodecaheptad CTD peptide, pSer2 in heptads 2 and 9] | – | – | – | – | – | – | remained at the level of the monovalent phosphopeptide | remained at the level of the monovalent phosphopeptide | – |
| HHHHHH-NH-(CH2)2-(OCH2CH2)6-CO-YpSPTSPS-YpSPTSPS-YpSPTSPS-YpSPTSPS-YpSPTSPS-YpSPTSPS-NH2 [compound 7, His6-PEG6 hexaheptad CTD peptide, hexa-pSer2] | – | – | – | – | – | – | did not enhance binding | did not enhance binding | 5 |
